The assay relates to M. tuberculosis 16R. The assay is described as follows: action on pathogenic mycobacteria from patients, Lowenstein-Jensen medium, M. tuberculosis 16R. In kind it is cell-based. Conditions: title: concentration of compound 10.0 g/l; 30 days; resistant to control compounds.
Take `[H]/N=C(/N)N[C@H]1[C@H](O)[C@@H](O)[C@H](O[C@@H]2O[C@@H](C)[C@](O)(C=O)[C@H]2O[C@@H]2O[C@@H](CO)[C@H](O)[C@@H](O)[C@@H]2NC)[C@@H](N/C(N)=N\[H])[C@@H]1O` [Streptomycin, reference compound]: the “antimicrobial action, M. tuberculosis 16R” value was “growth”. Then `CC[C@@H](CO)NCCN[C@@H](CC)CO` [Ethambutol, reference compound], with “growth”; and `CO[C@H]1/C=C/O[C@@]2(C)Oc3c(C)c(O)c4c(O)c(cc(O)c4c3C2=O)NC(=O)/C(C)=C\C=C\[C@H](C)[C@H](O)[C@@H](C)[C@@H](O)[C@@H](C)[C@H](OC(C)=O)[C@@H]1C` [Rifamycin, reference compound], with “growth”; and `NNC(=O)c1ccncc1` [Isoniazid, hydrazide of izonicotinic acid, reference compound], with “growth”.

These data come from patent US6071905A, “Biologically active substance on the basis of tetracyclic nitrogen heterocycles of pyrimidine row” (Natural Drug Sciences, LLC, priority 1998, dated 2000).
